Data on 32 compounds can be found in ChEMBL document CHEMBL3769344 (J Med Chem, 2016).

In the first assay the test system is Influenza A virus. The assay can be described thus: Antiviral activity against Influenza A virus A/WSN/33(H1N1) expressing M2 proton channel S31N mutant infected in MDCK cells assessed as plaque formation at 1 uM preincubated for 30 mins followed by infection measured on day 2 post infection by naphthalene black dye-based assay relative to control. Type of assay: functional, A/WSN/1933(H1N1).
With `COc1ccsc1-c1cc(CNC23CC4CC(CC(O)(C4)C2)C3)no1`, the Activity was determined as 33%.
Regarding `OC1C2CC3CC1CC(NCc1cc(-c4cccs4)on1)(C3)C2` (configuration not stated), the Activity amounted to 10%.
For the compound `c1csc(-c2nc(CNC34CC5CC(CC(C5)C3)C4)no2)c1`, the Activity was 66%.
As for `c1cc(-c2cc(CNC34CC5CC(CC(C5)C3)C4)no2)cs1`, the Activity is 47%.
On to `COc1ccc(-c2nc(CNC34CC5CC(CC(C5)C3)C4)no2)c(OC)c1`, for which the Activity is 76%.
Consider `c1csc(-c2cc(CNC34CC5CC(C3)C3(CO3)C(C5)C4)no2)c1` (configuration not stated), for which the Activity worked out at 72%.
For the compound `CC1(O)C2CC3CC1CC(NCc1cc(-c4cccs4)on1)(C3)C2` (configuration not stated), the Activity is 27%.
As to `c1c(CNC23CC4CC(CC(C4)C2)C3)noc1C1CCCCC1`, the Activity is listed as 57%.
As to `c1cc(-c2nc(CNC34CC5CC(CC(C5)C3)C4)no2)cs1`, the Activity came to 74%.
Same read-out and setting: to `c1csc(-c2cc(CNC34CC5COC(CC(C5)C3)C4)no2)c1` (configuration not stated) belongs 58%; to `OC12CC3CC(C1)CC(NCc1cc(-c4cccs4)on1)(C3)C2`, 40%.
Still for that read-out and setting: then `c1c(CNC23CC4CC(CC(C4)C2)C3)noc1C1CC1`, with 42%.
With `Clc1ccccc1-c1nc(CNC23CC4CC(CC(C4)C2)C3)no1`, the Activity is recorded as 88%.
Regarding `c1c(CNC23CC4CC(CC(C4)C2)C3)noc1C1CCC1`, the Activity worked out at 42%.
As to `OC12CC3CC(O)(C1)CC(NCc1cc(-c4cccs4)on1)(C3)C2`, the Activity is listed as 69%.
The same measure, in the same setting: then `c1csc(-c2nnc(CNC34CC5CC(CC(C5)C3)C4)s2)c1`, with 39%; and `COc1ccccc1-c1nc(CNC23CC4CC(CC(C4)C2)C3)no1`, with 66%.
`c1coc(-c2cc(CNC34CC5CC(CC(C5)C3)C4)no2)c1`: the Activity amounted to 47%.
Take `CC(C)c1cc(CNC23CC4CC(CC(C4)C2)C3)no1`: the Activity is recorded as 66%.
Take `C(NC12CC3CC(CC(C3)C1)C2)c1noc(C2CC2)n1`: the Activity is 82%.
As to `c1ccc(-c2cc(CNC34CC5CC(CC(C5)C3)C4)no2)cc1`, the Activity is recorded as 26%.
Still for that read-out and setting: then `COc1ccsc1-c1cc(CNC23CC4CC(CC(C4)C2)C3)no1`, with 39%.
Take `COc1ccc(-c2cc(CNC34CC5CC(CC(C5)C3)C4)no2)cc1`: the Activity is given as 59%.
Take `Fc1cccc(F)c1-c1cc(CNC23CC4CC(CC(C4)C2)C3)no1`: the Activity is 56%.
Turning to `CCCc1cc(CNC23CC4CC(CC(C4)C2)C3)no1`, the Activity worked out at 73%.
As for `c1csc(-c2cc(NC34CC5CC(CC(C5)C3)C4)no2)c1`, the Activity is reported as 32%.
`O=C1C2CC3CC1CC(NCc1cc(-c4cccs4)on1)(C3)C2`: the Activity was 31%.
Take `Clc1ccccc1-c1cc(CNC23CC4CC(CC(C4)C2)C3)no1`: the Activity came out at 84%.
Consider `COc1cccc(-c2cc(CNC34CC5CC(CC(C5)C3)C4)no2)c1`, for which the Activity turned out to be 39%.
With `COc1ccc(-c2nc(CNC34CC5CC(CC(C5)C3)C4)no2)cc1`, the Activity is listed as 92%.

The subject of another assay is Influenza A virus. The assay can be described thus: Antiviral activity against Influenza A virus A/WSN/33(H1N1) expressing M2 proton channel S31N mutant infected in MDCK cells assessed as reduction in plaque formation preincubated for 30 mins followed by infection measured on day 2 post infection by naphthalene black dye-based assay. Type of assay: functional, organism-based, A/WSN/1933(H1N1).
Take `COc1ccsc1-c1cc(CNC23CC4CC(CC(O)(C4)C2)C3)no1`: the EC50 is 404 nM.
`OC1C2CC3CC1CC(NCc1cc(-c4cccs4)on1)(C3)C2` (configuration not stated): the EC50 stood at 727 nM.
On the same count and under the same terms, then `NC12CC3CC(CC(C3)C1)C2` [AMANTADINE], with 22500 nM; and `OC12CC3CC(C1)CC(NCc1cc(-c4cccs4)on1)(C3)C2`, with 510 nM.
As to `OC12CC3CC(O)(C1)CC(NCc1cc(-c4cccs4)on1)(C3)C2`, the EC50 was determined as 2500 nM.
With `Oc1ccc(NC23CC4CC(CC(C4)C2)C3)c(O)c1`, the EC50 was 3200 nM.
On to `c1csc(-c2cc(NC34CC5CC(CC(C5)C3)C4)no2)c1`, for which the EC50 turned out to be 353 nM.

The term EC50 denotes the midpoint of the concentration-response curve.
